{"source": "patent EP1923060A1", "about": "“Combinations of a sphingolipid and an HMG-CoA reductase inhibitor for treating hypercholesterolemia” (Nederlandse Organisatie voor …, priority 2006, dated 2008)", "origin": "cited, not measured here", "key": {"[1]": {"test_system": "galactosamine-injured primary rat hepatocytes", "conditions": "Kim et al., Phytotherapy Res. (2000) 14:448-451"}, "[2]": {"conditions": "in humans"}, "C57bI mice": {"test_system": "C57bI mice", "conditions": "intraperitoneal injection; US 2004/0171557"}}}
{"compound": "CCCCCCCCC/C=C\\CC/C=C/[C@@H](O)[C@H](CO[C@@H]1O[C@H](CO)[C@@H](O)[C@H](O)[C@H]1O)NC(=O)CCCCCCCCCCCCCCC", "note": "[LCC, 1-O-(β-D-glucopyranosyl)-(2S,3R,4E,8Z)-2-N-palmityloctadecasphinga-4,8-diene]", "values": [{"measurement": "release into the culture medium of GPT and SDH", "setting": "[1]", "result": "reduce the release"}]}
{"compound": "CCCCCCCCCCCCCC[C@@H](O)[C@@H](O)[C@@H](N)CO", "note": "[phytosphingosine]", "values": [{"measurement": "plasma (VLDL and LDL) cholesterol and triglyceride levels", "setting": "[2]", "result": "demonstrated decisively"}]}
{"compound": "glucocerebroside", "values": [{"measurement": "liver fat content", "setting": "C57bI mice", "result": "may be reduced"}]}
